{"source": "patent US20190307843A1", "about": "“SINGLE DOSE METHODS FOR PREVENTING AND TREATING FUNGAL INFECTIONS” (Cidara Therapeutics, Inc., priority 2016, published 2019)", "key": {"[1]": {"test_system": "C. albicans", "assay": "In vitro susceptibility testing (CLSI M27-A3), C. albicans", "assay_type": "cell-based", "settings": "Candida albicans, 24 h", "procedure": "(§1) Ten clinical Candida strains were used for the in vivo treatment studies, including four C. albicans, three C. glabrata, and three C. parapsilosis strains (Table 15). This group was selected to encompass phenotypic variability in susceptibility to triazoles and echinocandins and based on similar fitness in the animal model as defined by the amount of growth in control animals over 24 h. The organisms were maintained, grown, and quantified on Sabouraud's dextrose agar (SDA) plates.\n(§2) In vitro susceptibility testing. All isolates were tested in accordance with the standards in CLSI document M27-A3. The MICs were determined visually after 24 h of incubation as the lowest concentration of drug that causes a significant diminution (50%) of growth compared to controls. MICs were determined on three separate occasions in duplicate."}, "[2]": {"test_system": "C. glabrata", "assay": "In vitro susceptibility testing (CLSI M27-A3), C. glabrata", "assay_type": "cell-based, Candida glabrata", "settings": "Nakaseomyces glabratus, 24 h", "procedure": "as §1, §2"}, "[3]": {"test_system": "Candida albicans clinical isolates", "settings": "SENTRY, Pfaller, et al 2017; cited from earlier work"}, "[4]": {"assay": "Pharmacokinetics in healthy human adults (Phase 1)", "assay_type": "in vivo", "settings": "for AUC: human, plasma, free drug, read-out: average 24 h AUC over a 7 day period", "excerpt": "The in vitro activity of CD101 was previously evaluated as part of the SENTRY international surveillance program using CLSI broth microdilution methodology (M38-A2, M27-A3; Pfaller, et al 2017). […] These susceptibility data were then compared graphically to CD101 plasma concentrations from studies in healthy adults, adjusted for plasma protein binding. Nonclinical efficacy in a murine model of Pneumocystis pneumonia were also considered to evaluate CD101 doses for clinical investigation of antifungal prophylaxis."}, "[5]": {"test_system": "C. parapsilosis", "assay": "Neutropenic murine disseminated candidiasis model, PK/PD targets, C. parapsilosis"}, "[6]": {"assay": "Plasma and lung epithelial lining fluid (ELF) concentrations in ICR mice, 20 mg/kg IP", "assay_type": "in vivo, mouse", "settings": "for Kp / half-life: 20 mg/kg", "procedure": "At pre-dose, 1, 3, 6, 12, 24, 48, and 72 hours post-dose, 3 mice/timepoint were anesthetized/euthanized for blood collection (plasma) and bronchoalveolar lavage fluid (BALF) collection with 2×0.5 mL flushes of saline. Urea levels for plasma/BALF normalization for the volume of lung epithelial lining fluid (ELF) calculation were quantified using a commercially-available spectrophotometry-based assay. CD101 concentrations in plasma/BALF samples were measured by LC with electrospray ionization tandem mass spectrometric (LC-MS/MS) detection.\nUrea for plasma/BALF normalization for ELF volume were quantified using spectrophotometry. CD101 concentrations in plasma/BALF samples were measured by LC-MS/MS. Total plasma concentrations were corrected for protein binding (99.2%)."}, "[7]": {"assay": "Pharmacokinetics of CD101 after single 30 mg/kg SC (vs IV) dose in monkeys", "assay_type": "in vivo", "settings": "cynomolgus monkey, plasma; for half-life: 30 mg/kg", "procedure": "Previous toxicology studies by the IV route of administration conducted in cynomolgus monkeys have shown CD101 to be safe and well tolerated at up to at least 30 mg/kg, which generates very high systemic exposures upon initial infusion of CD101 into the bloodstream. Therefore, only local tolerability (and PK) of CD101 by SC administration required evaluation. […] Plasma concentrations were then quantified by liquid chromatography with tandem mass spectrometric detection (LC-MS/MS). Bioavailability from SC dosing was calculated by comparing the calculated area under the concentration-time profile (AUC) from SC against the AUC from IV administration of the same dose."}, "[8]": {"settings": "both sexes, sc, Subcutaneous 30 mg/kg"}, "[9]": {"settings": "female, animal 9707, F, 30 mg/kg SC"}, "[10]": {"settings": "male, animal 9697, M, 30 mg/kg SC"}}, "note": "Like-named read-outs stand apart in the source and are kept apart here. Starred links: 1 amine or outer side, 2 acyl side, 3 side chain; linkers in the order of their positions; H or OH if unused. Positions of bridges follow the written chain, without caps; N, C: chain ends. Non-standard residues stand in square brackets, D forms with d. Residues, ends and D or L forms follow the SMILES beside them. *: point of attachment. Orn(4R-OH,5R-OCH2CH2NMe3+) = C[N+](C)(C)CCO[C@@H](N[*:3])[C@H](O)C[C@H](N[*:1])C(=O)[*:2]; pTerphenylCO(4''-OnC5H11) = CCCCCOc1ccc(-c2ccc(-c3ccc(C(=O)*)cc3)cc2)cc1; hTyr(3S-OH,4S-OH) = N[C@H](C(=O)O)[C@H](O)[C@@H](O)c1ccc(O)cc1; Pro(3S-OH,4S-Me) = C[C@H]1CN[C@H](C(=O)O)[C@H]1O; Hyp = O=C(O)[C@@H]1C[C@@H](O)CN1", "data": [{"smiles": "CCCCCOc1ccc(-c2ccc(-c3ccc(C(=O)N[C@H]4C[C@@H](O)[C@@H](OCC[N+](C)(C)C)NC(=O)[C@@H]5[C@@H](O)[C@@H](C)CN5C(=O)[C@H]([C@@H](C)O)NC(=O)[C@H]([C@H](O)[C@@H](O)c5ccc(O)cc5)NC(=O)[C@@H]5C[C@@H](O)CN5C(=O)[C@H]([C@@H](C)O)NC4=O)cc3)cc2)cc1", "note": "[CD101] ({pTerphenylCO(4''-OnC5H11)}-[Orn(4R-OH,5R-OCH2CH2NMe3+)]T[Hyp][hTyr(3S-OH,4S-OH)]T[Pro(3S-OH,4S-Me)]; lactam 1-C)", "values": [{"measurement": "MIC", "setting": "[1]; C. albicans 98-17", "value": 0.06, "unit": "µg/mL"}, {"measurement": "MIC", "setting": "[1]; C. albicans 98-210", "value": 0.03, "unit": "µg/mL"}, {"measurement": "MIC", "setting": "[1]; C. albicans 580", "value": 0.06, "unit": "µg/mL"}, {"measurement": "MIC", "setting": "[1]; C. albicans K-1, 50% growth diminution", "value": 0.06, "unit": "µg/mL"}, {"measurement": "MIC", "setting": "[2]; C. glabrata 5592", "value": 0.125, "unit": "µg/mL"}, {"measurement": "MIC", "setting": "[2]; C. glabrata 10956", "value": 1, "unit": "µg/mL"}, {"measurement": "MIC", "setting": "[2]; C. glabrata 35315", "value": 0.5, "unit": "µg/mL"}, {"measurement": "MIC90", "setting": "[3]", "value": 0.06, "unit": "µg/mL"}, {"measurement": "free drug AUC0-168", "setting": "[4]; 200 mg dose", "value": 15.4, "unit": "µg·h/mL"}, {"measurement": "free drug AUC0-168", "setting": "[4]; 400 mg dose", "value": 30.2, "unit": "µg·h/mL"}, {"measurement": "time plasma concentrations above the MEC90 for A. fumigatus", "setting": "[4]; both 400 mg and 200 mg", "value": 7, "unit": "days"}, {"measurement": "AUC", "setting": "[4]; 200 mg dose", "value": "~2.2", "unit": "µg·h/mL"}, {"measurement": "AUC", "setting": "[4]; 400 mg dose", "value": "~4.3", "unit": "µg·h/mL"}, {"measurement": "mean unbound plasma concentrations relative to MIC90 for C. albicans", "setting": "[4]; single dose of 400 mg, Phase 1 subjects", "value": "above the MIC90 for C. albicans for seven days"}, {"measurement": "median stasis 24 h free drug AUC/MIC target", "setting": "[5]; C. parapsilosis", "value": 2.61}, {"measurement": "Stasis 24 h Ave free drug AUC/MIC", "setting": "[5]; C. parapsilosis 20423.072", "value": 1.39}, {"measurement": "Stasis free drug AUC0-168h/MIC", "setting": "[5]; C. parapsilosis 20423.072", "value": 9.74}, {"measurement": "Stasis total drug AUC0-168h/MIC", "setting": "[5]; C. parapsilosis 20423.072", "value": 1217.49}, {"measurement": "Static dose", "setting": "[5]; C. parapsilosis 20423.072", "value": 9.62, "unit": "mg/kg"}, {"measurement": "Stasis 24 h Ave free drug AUC/MIC", "setting": "[5]; C. parapsilosis 20477.048", "value": 3.82}, {"measurement": "Stasis free drug AUC0-168h/MIC", "setting": "[5]; C. parapsilosis 20477.048", "value": 26.72}, {"measurement": "Stasis total drug AUC0-168h/MIC", "setting": "[5]; C. parapsilosis 20477.048", "value": 3339.42}, {"measurement": "Static dose", "setting": "[5]; C. parapsilosis 20477.048", "value": 52.96, "unit": "mg/kg"}, {"measurement": "median stasis free drug AUC0-168/MIC target", "setting": "[5]; C. parapsilosis (only two strains achieved the endpoint)", "value": 18.2}, {"measurement": "ELF half-life", "setting": "[6]; 20 mg/kg IP", "value": 32, "unit": "h"}, {"measurement": "mean maximum ELF concentration", "setting": "[6]; 20 mg/kg IP", "value": 15.1, "unit": "µg/mL"}, {"measurement": "mean maximum plasma concentration", "setting": "[6]; 20 mg/kg IP", "value": 30.1, "unit": "µg/mL"}, {"measurement": "plasma half-life", "setting": "[6]; 20 mg/kg IP", "value": 21.1, "unit": "h"}, {"measurement": "time of maximum plasma concentration", "setting": "[6]; 20 mg/kg IP, first collection timepoint", "value": 1, "unit": "h"}, {"measurement": "Kp", "setting": "[6]; ICR, mouse, lung epithelial lining fluid (ELF), intraperitoneal, free-drug, read-out: ELF/Plasma AUClast ratio", "value": 100}, {"measurement": "Kp", "setting": "[6]; ICR, mouse, lung epithelial lining fluid (ELF), intraperitoneal, total-drug, read-out: ELF/Plasma AUClast ratio", "value": 0.8}, {"measurement": "concentration at 72 h", "setting": "[6]; ICR, mouse, lung epithelial lining fluid (ELF), intraperitoneal, 20 mg/kg IP, at 72 h", "value": 4000, "unit": "ng/mL"}, {"measurement": "Kp", "setting": "[6]; ICR, mouse, lung epithelial lining fluid (ELF), ip, 20 mg/kg IP, read-out: AUC exposure ratios of ELF/plasma", "value": "0.8 to 0.95"}, {"measurement": "half-life", "setting": "[6]; ICR, mouse, lung epithelial lining fluid (ELF), ip, 20 mg/kg IP, read-out: ELF half-life (converted)", "value": 31.9, "unit": "h"}, {"measurement": "AUC", "setting": "[6]; ICR, mouse, lung epithelial lining fluid (ELF), 20 mg/kg IP, read-out: mean ELF AUC", "value": 802, "unit": "µg·h/mL"}, {"measurement": "AUC(0-t)", "setting": "[6]; ICR, mouse, lung epithelial lining fluid (ELF), 20 mg/kg IP, read-out: mean ELF AUC0-72", "value": 606, "unit": "µg·h/mL"}, {"measurement": "half-life", "setting": "[6]; ICR, mouse, plasma, ip, 20 mg/kg IP, read-out: plasma half-life (converted)", "value": 21, "unit": "h"}, {"measurement": "AUC", "setting": "[6]; ICR, mouse, plasma, 20 mg/kg IP, read-out: mean plasma AUC", "value": 848, "unit": "µg·h/mL"}, {"measurement": "AUC(0-t)", "setting": "[6]; ICR, mouse, plasma, 20 mg/kg IP, read-out: mean plasma AUC0-72", "value": 762, "unit": "µg·h/mL"}, {"measurement": "half-life", "setting": "[7]; [8]", "value": "~124", "unit": "h"}, {"measurement": "AUC(0-t)", "setting": "[7]; [8]", "value": 2460, "unit": "µg·h/mL"}, {"measurement": "Cmax", "setting": "[7]; [8]", "value": 13400, "unit": "ng/mL"}, {"measurement": "Tmax", "setting": "[7]; [8]", "value": 72, "unit": "h"}, {"measurement": "AUC(0-inf)", "setting": "[7]; both sexes, sc, Subcutaneous 30 mg/kg, read-out: AUCinf", "value": 3520, "unit": "µg·h/mL"}, {"measurement": "bioavailability", "setting": "[7]; both sexes, subcutaneous, SC 30 mg/kg vs IV at the same dose, 10-day period", "value": 80, "unit": "%"}, {"measurement": "half-life", "setting": "[7]; iv, IV 30 mg/kg", "value": 49.7, "unit": "h"}, {"measurement": "AUC(0-t)", "setting": "[7]; IV 30 mg/kg", "value": 3140, "unit": "µg·h/mL"}, {"measurement": "Cmax", "setting": "[7]; IV 30 mg/kg", "value": 112000, "unit": "ng/mL"}, {"measurement": "Tmax", "setting": "[7]; IV 30 mg/kg", "value": 1, "unit": "h"}, {"measurement": "AUC(0-inf)", "setting": "[7]; IV 30 mg/kg, read-out: AUCinf", "value": 3340, "unit": "µg·h/mL"}, {"measurement": "half-life", "setting": "[7]; female, sc, animal 9707, F, 30 mg/kg SC", "value": 171, "unit": "h"}, {"measurement": "AUC(0-t)", "setting": "[7]; [9]", "value": 2180, "unit": "µg·h/mL"}, {"measurement": "Cmax", "setting": "[7]; [9]", "value": 10900, "unit": "ng/mL"}, {"measurement": "Tmax", "setting": "[7]; [9]", "value": 48, "unit": "h"}, {"measurement": "AUC(0-inf)", "setting": "[7]; female, animal 9707, F, 30 mg/kg SC, read-out: AUCINF_obs", "value": 3760, "unit": "µg·h/mL"}, {"measurement": "half-life", "setting": "[7]; male, sc, animal 9697, M, 30 mg/kg SC", "value": 76.2, "unit": "h"}, {"measurement": "AUC(0-t)", "setting": "[7]; [10]", "value": 2740, "unit": "µg·h/mL"}, {"measurement": "Cmax", "setting": "[7]; [10]", "value": 15900, "unit": "ng/mL"}, {"measurement": "Tmax", "setting": "[7]; [10]", "value": 96, "unit": "h"}, {"measurement": "AUC(0-inf)", "setting": "[7]; male, animal 9697, M, 30 mg/kg SC, read-out: AUCINF_obs", "value": 3280, "unit": "µg·h/mL"}]}]}
